What was measured:
[1] = doses between 12.5 and 300 mg twice daily; cited from earlier work
[2] = test system: induced mouse models of atherosclerosis; experiment: induced mouse models of atherosclerosis; format: in vivo, mice
Description: Inducing atherosclerotic plaque development in mice is disclosed in details in U.S. patent application Ser. No. 12/286,368, which is herein incorporated by reference in its entirety. These mouse models are used for testing tetracycline-acenocoumorol conjugate to determine their efficacy both on reducing progression of plaque development and symptoms of chronic inflammation. Mice purchased from vendors are used for in vivo atherosclerotic plaque development by multiple doses of plaque complexes by intra-peritoneal and intravenous routes as described U.S. patent application Ser. No. 12/286,368. […] Ovastatin, an established anti-atherosclerotic drug (Schwartz et al, 2001) is used for control purposes in these studies and administered by oral route.
Ovastatin, tetracycline, clopidogrel or any anti-coagulant individually and tetracycline-clopidogrel (0.1-5 mg/kg per day) are orally administrated to the symptomatic and asymptomatic atherosclerotic mice models for 8 to 12 weeks. Following administration of the drugs, mice with asymptomatic plaque development are euthanized and blood collected via cardiac puncture. The blood samples will be used test clotting or blood coagulation test to analyse anti-coagulation efficacy of drugs used.

SMILES | safety profile [1] | plaque accumulation, histochemical analysis of heart tissues ([2]; asymptomatic mice model, after treatment) | symptoms of plaque inflammation ([2]; mice with plaque induced chronic inflammation, compared to control animal without treatment)
[H]/N=C(/N)c1ccc(NCc2nc3cc(C(=O)N(CCC(=O)O)c4ccccn4)ccc3n2C)cc1 [dabigatran] | good safety profile | – | –
CC[C@H](C)C(=O)O[C@H]1C[C@@H](C)C=C2C=C[C@H](C)[C@H](CC[C@@H]3C[C@@H](O)CC(=O)O3)[C@H]21 [ovastatin] | – | reduced plaque accumulation | reduced symptoms of plaque inflammation

Reference: patent publication US20100292183A1, “TETRACYCLINE AND USES THEREOF” (priority 2009, published 2010)
